{"source": "paper PMC8403366", "about": "“Functional significance of gain-of-function H19 lncRNA in skeletal muscle differentiation and anti-obesity effects” (Genome Medicine, 2021)", "format_in_all_cases": "in vivo, mouse", "key": {"[1]": {"system": "C57BL/6 J mice", "assay": "Glucose and insulin tolerance tests", "conditions": "n = 5", "protocol": "Insulin (ITT) and glucose (GTT) tolerance tests were performed on 6-h fasted male and female mice fed with chow or HFD. Glucose values were measured using AimStrip® Plus Blood Glucose Meter (VWR) by tail snip. Glucose (1 g per kg body weight) or human insulin (0.75 U per kg body weight) was injected intraperitoneally (i.p.) after baseline glucose levels were measured in each mouse, and blood glucose levels were measured 15, 30, 45, 60, and 90 min after injection."}, "[2]": {"system": "C57BL/6 J mice", "assay": "Tissue distribution / pharmacokinetics of biotinylated mimics", "conditions": "10 mg/kg i.p.; streptavidin immunohistochemistry, 24 hours post administration; n = 5", "protocol": "The H19-Rgof mimics and AGR-H19-Rgof mimics were synthesized by Bio-synthesis Inc. The linker that connected the peptide and RNA oligonucleotides was succinimidyl 4-(N-maleimidomethyl) cyclohexane-1-carboxylate (SMCC). RNA mimics sequences are listed in the Additional file 1: Table S1. To characterize the pharmacokinetics of H19-Rgof and AGR-H19-Rgof mimics, the biotinylated H19-Rgof and AGR-H19-Rgof mimics (10 mg/kg) were intraperitoneally injected into C57BL/6 J mice. The liver, kidneys, lungs, heart, and skeletal muscles of the animals were collected 3, 12, 24, 48, or 72 h post-injection (n = 5 animal per time point). Tissues were subjected to immunohistochemistry using streptavidin alkaline phosphatase conjugates and small RNA isolation in accordance with the manufacturer’s instructions using miRCURY™ RNA Isolation Kits (Qiagen). Immunostained tissue slides were obtained with a Vectra Polaris Multispectral Imaging scanner (PerkinElmer). The quantification of immunohistochemistry staining density was performed by Image-pro plus 6.0 (Media Cybernetics) and calculated based on the average staining intensity and the percentage of positively stained cells. Pharmacokinetic parameters were determined by nonlinear regression analysis."}, "[3]": {"system": "C57BL/6 J mice", "assay": "Run-to-exhaustion and sprint treadmill tests", "protocol": "Exhaustion treadmill running and sprint running were used to evaluate the physiological activity of the mice. The mice were repeatedly exercised twice weekly for 2 weeks using a treadmill (Ugo Basile, 57631, Stoelting). For the animal exercise, mice were placed on the horizontal treadmill starting at 5 m/min and kept on for about 10 min. The speed was then increased to 10 m/min for the remaining 30 min. Treadmill training was […] and followed a standardized protocol. When performing the speed test, the mice were placed on a treadmill with a 15° incline. We increased the speed from 6 m/min to 26 m/min at increments of 2 m/min, which each increment lasting 2 min. Mice were considered to have reached the point of exhaustion when they made contact with the grid for a period of time greater than 5 s. The running speed of the mice was recorded and the animals were returned to their cages once exhausted. For the sprint test: the sprint regimen consisted of mice warming up for 3 min at 6 m/min on a 0° incline, followed by a 2 min run at the same speed with a 15° incline. Subsequent runs were performed at a 15° incline. Speed was first increased to 14 m/min for 30 s, followed by 1.5 min of low speed running at 6 m/min. The speed was then increased to 18 m/min for 30 s. Afterwards, we increased the speed from 18 m/min to 24 m/min at 2 m/min increments, with each increment lasting 15 s […]. After that, the mice continued interval running at 6 m/min for 3 min, followed by an increase in the speed from 20 m/min to 32 m/min at 4 m/min increments, with each increment lasting 15 s. This pattern of exercise continued with subsequent intervals running at 6 m/min for 3 min, followed by a sharp increase in speed from 22 m/min to 34 m/min at 4 […], with each increment lasting 15 s. This pattern was repeated with increasing speed until the mice could no longer keep up and gave up on the grid."}, "[4]": {"system": "C57BL/6 J mice", "assay": "Skeletal muscle immunostaining, fiber number/area, fiber typing, SDH staining", "protocol": "Skeletal muscles were collected and fixed in 10% Neutral Buffered Formalin at 4 °C for 1 h, followed by 10% sucrose/PBS overnight and then 18% sucrose/PBS overnight at 4 °C before being frozen embedded and sectioned. For immunostaining, frozen cross-sections of muscle were fixed in 4% paraformaldehyde for 5 min, washed, permeabilized with 0.5% Triton X-100, and stained with indicated primary antibodies. After extensive washing in PBS-0.05% Triton X-100, the secondary antibody was added and incubated for 1 h. After extensive washing in PBS-0.05% Triton X-100, nuclei were stained with Vectashield Antifade Mounting Medium with DAPI (Vector Laboratories). Images of laminin-stained fibers were taken by Zeiss microscope. Muscle cross-sectional area and fiber numbers were quantified by ImageJ. Immunostained tissue slides were obtained with Vectra Polaris Multispectral Imaging scanner (PerkinElmer). The quantification of IF staining density was performed by Image-pro plus 6.0 (Media Cybernetics) and calculated based on the average staining intensity and the percentage of positively stained cells. To quantify myotube fusion, fusion index was calculated by dividing the number of nuclei in MHC-positive myotubes with ≥ 3 nuclei by the total number of nuclei analyzed in a field.\nMuscle fiber-type immunofluorescence staining was performed with antibodies to MHC type I (supernatant, DSHB, BA-D5), MHC type IIa (supernatant, DSHB, SC-71), and MHC type IIb (supernatant, DSHB, BF-F3), as previously described. Type IIx fibers are not recognized by these antibodies and appeared black. Succinic dehydrogenase (SDH) staining was used to assess metabolic fiber type switch. Frozen cross-sections of muscle were allowed to equilibrate to room temperature and then incubated in a solution containing Nitroblue tetrazolium and sodium succinate for 20 min. Sections were washed 3 times in PBS, dehydrated in ethanol, and mounted with an aqueous mounting medium (Vector Laboratories). The antibodies used are listed in the Additional file 3: Table S3."}, "[5]": {"conditions": "HFD-fed mice, vs AGR-Scr, n = 5"}, "[6]": {"conditions": "HFD-fed mice, staining intensity, n = 8"}, "[7]": {"conditions": "WT mice, 1 mg/kg i.p. every 3 days, 12 weeks, immunofluorescence, n = 8"}, "[8]": {"conditions": "WT mice, MHC isoform immunolabeling, vs AGR-Scr, n = 5"}}}
{"substance": "N-terminal-ELTNEIPAELTNEIPA-Linker-5'-[2’-F-C][2’-F-U][2’-F-C][2’-F-U][2’-F-U][2’-F-U][2’-F-A][2’-F-U][2’-F-U][2’-F-U][2’-F-C][2’-F-U][2’-F-G][2’-F-A][2’-F-G][2’-F-C][2’-F-U][2’-F-U][2’-F-U][2’-F-C][2’-F-C][2’-F-U][2’-F-A][2’-F-U][2’-F-C][2’-F-U][2’-F-U][2’-F-U][2’-F-C][2’-F-C]-3' [AGR-H19-Rgof]", "values": [{"measurement": "glucose metabolism (GTT)", "setting": "[1]; HFD-fed male mice", "result": "improved"}, {"measurement": "insulin resistance (ITT, serum insulin, HOMA-IR)", "setting": "[1]; HFD-fed male mice", "result": "alleviated"}, {"measurement": "blood glucose levels in response to a glucose challenge (GTT)", "setting": "[1]; WT male mice on chow, glucose 1 g per kg i.p.", "result": "reduced"}, {"measurement": "blood glucose levels in response to an insulin challenge (ITT)", "setting": "[1]; WT male mice on chow, insulin 0.75 U per kg i.p.", "result": "reduced"}, {"measurement": "accumulation in liver, kidneys and lungs", "setting": "[2]", "result": "minimal accumulation"}, {"measurement": "biotin-labeled mimic detected in skeletal muscle", "setting": "[2]", "result": "substantial proportion"}, {"measurement": "skeletal muscle distribution compared to unlabeled H19-Rgof", "setting": "[2]", "result": "significantly enhanced"}, {"measurement": "running speed", "setting": "[3]; [5]", "result": "elevated"}, {"measurement": "total running time", "setting": "[3]; [5]", "result": "elevated"}, {"measurement": "running speed, treadmill exhaustion test", "setting": "[3]; WT male and female mice, vs Scr-treated controls, n = 15", "result": "increased speed"}, {"measurement": "maximum running speed, sprint interval treadmill", "setting": "[3]; WT male and female mice, vs control, n = 10", "result": "elevated"}, {"measurement": "fiber area in TA", "setting": "[4]; HFD-fed mice, n = 10, 9", "result": "increased"}, {"measurement": "Ub-DMD in TA", "setting": "[4]; [6]", "result": "reduced"}, {"measurement": "expression of DMD in TA", "setting": "[4]; [6]", "result": "increased"}, {"measurement": "DMD protein status in TA", "setting": "[4]; [7]", "result": "increased DMD protein status"}, {"measurement": "DRP2 protein status in TA", "setting": "[4]; [7]", "result": "improved protein status"}, {"measurement": "nNOS protein status in TA", "setting": "[4]; [7]", "result": "improved protein status"}, {"measurement": "β-dystroglycan protein status in TA", "setting": "[4]; [7]", "result": "improved protein status"}, {"measurement": "fast glycolytic fiber type IIb in QUAD, SOL and TA", "setting": "[4]; [8]", "result": "substantial shift toward"}, {"measurement": "percentage of fast oxidative fiber type IIa in QUAD, SOL and TA", "setting": "[4]; [8]", "result": "reduced percentage"}, {"measurement": "SDH+ fibers in QUAD", "setting": "[4]; WT mice, vs AGR-Scr, n = 5", "result": "reduced SDH+"}, {"measurement": "SDH+ in TA and GAS", "setting": "[4]; WT mice, vs AGR-Scr, n = 5", "result": "minimally altered"}, {"measurement": "SDH+ muscle staining in SOL and EDL", "setting": "[4]; WT mice, vs AGR-Scr, n = 5", "result": "increased SDH+"}, {"measurement": "type I fibers in SOL", "setting": "[4]; WT mice, vs AGR-Scr, n = 5", "result": "marginally reduced"}, {"measurement": "type II fibers in SOL", "setting": "[4]; WT mice, vs AGR-Scr, n = 5", "result": "increased"}, {"measurement": "utrophin protein status in the quadriceps (QUAD)", "setting": "[4]; WT mice, vs AGR-Scr, n = 8", "result": "increased"}, {"measurement": "muscle fiber area", "setting": "[4]; WT mice, vs Scr mimics", "result": "increased"}, {"measurement": "number of muscle fibers (SOL, EDL, TA, GAS, QUAD)", "setting": "[4]; WT mice, vs Scr mimics, n = 5", "result": "increased number"}]}
